Data as given in ChEMBL document CHEMBL3588781, “HPLC-NMR and HPLC-MS Profiling and Bioassay-Guided Identification of Secondary Metabolites from the Australian Plant Haemodorum spicatum” (2015).
Activity calls are given as the source filed them. The calls are words filed in the database; no cut-off is given here.

Legend:
Escherichia coli = assay: Antimicrobial activity against Escherichia coli ATCC 25922 assessed as microbial growth inhibition at 1 mg/ml incubated overnight at 37 degC; format: functional; conditions: for zone of inhibition at 1000 µg/mL: read-out: IZ
Staphylococcus aureus [1] = assay: Antimicrobial activity against Staphylococcus aureus ATCC 25923 assessed as microbial growth inhibition at 1 mg/ml incubated overnight at 37 degC; format: functional; conditions: for zone of inhibition at 1000 µg/mL: read-out: IZ
Staphylococcus aureus [2] = assay: Antimicrobial activity against methicillin-resistant Staphylococcus aureus 344/2-32 assessed as microbial growth inhibition at 1 mg/ml incubated overnight at 37 degC; format: functional; conditions: for zone of inhibition at 1000 µg/mL: read-out: IZ
Pseudomonas aeruginosa = assay: Antimicrobial activity against Pseudomonas aeruginosa ATCC 27853 assessed as microbial growth inhibition at 1 mg/ml incubated overnight at 37 degC; format: functional; conditions: for zone of inhibition at 1000 µg/mL: read-out: IZ
Streptococcus pyogenes = assay: Antimicrobial activity against Streptococcus pyogenes 345/1 assessed as microbial growth inhibition at 1 mg/ml incubated overnight at 37 degC; format: functional; conditions: for zone of inhibition at 1000 µg/mL: read-out: IZ
Candida albicans = assay: Antimicrobial activity against Candida albicans ATCC 10231 assessed as microbial growth inhibition at 1 mg/ml incubated overnight at 37 degC; format: functional, organism-based

| SMILES | zone of inhibition at 1000 µg/mL (Escherichia coli) | inhibition zone (IZ) (Staphylococcus aureus [1]) | inhibition zone (IZ) (Staphylococcus aureus [2]) | inhibition zone (IZ) (Pseudomonas aeruginosa) | inhibition zone (IZ) (Streptococcus pyogenes) | inhibition zone (IZ) (Candida albicans) | zone of inhibition at 1000 µg/mL (Staphylococcus aureus [1]) | zone of inhibition at 1000 µg/mL (Staphylococcus aureus [2]) | zone of inhibition at 1000 µg/mL (Pseudomonas aeruginosa) | zone of inhibition at 1000 µg/mL (Streptococcus pyogenes) | inhibition zone (IZ) (Escherichia coli) |
| --- | --- | --- | --- | --- | --- | --- | --- | --- | --- | --- | --- |
| COC1=Cc2cc(=O)oc3ccc(-c4ccccc4)c(c23)C1=O | 1 mm | inactive | inactive | inactive | inactive | inactive |  |  |  |  |  |
| COc1cc(OC)c2ccc(-c3ccccc3)c3c2c1C=C(O)C3=O | 1 mm |  |  |  |  | inactive | 1 mm | 1 mm | 5 mm | 1 mm |  |
| O=c1ccc2cc(O)c3oc4ccccc4c4ccc1c2c34 |  | inactive | inactive |  |  | inactive |  |  | 3 mm | 1 mm | inactive |
| COC1=Cc2cc(OC)c(OC)c3ccc(-c4ccccc4)c(c23)C1=O | 1 mm | inactive |  |  |  | inactive |  | 1 mm | 1 mm | 1 mm |  |
| COC1OC(=O)c2ccc(-c3ccccc3)c3c(O)c(O)cc1c23 (stereo unspecified) | 1 mm | inactive | inactive |  |  | inactive |  |  | 1 mm | 1 mm |  |
| COc1cc2ccc(=O)c3ccc4c5ccccc5oc1c4c23 |  |  |  |  |  | inactive | 1 mm | 1 mm | 3 mm | 3 mm | inactive |
| COC(=O)Nc1nc2ccccc2[nH]1 |  |  |  |  |  | inactive |  |  |  |  |  |
| COC1=Cc2cc(O)c(OC)c3ccc(-c4ccccc4)c(c23)C1=O | 1 mm |  | inactive |  |  | inactive | 1 mm |  | 1 mm | 1 mm |  |
| COc1cc2cc(OC)c3oc4ccccc4c4ccc(c1=O)c2c34 |  | inactive | inactive |  |  | inactive |  |  | 4 mm | 2 mm | inactive |
| CC1(C)S[C@@H]2[C@H](NC(=O)[C@H](N)c3ccccc3)C(=O)N2[C@H]1C(=O)O [AMPICILLIN] |  |  |  |  |  |  | 15 mm | 3 mm | 2 mm | 20 mm | inactive |
| COc1cc2cc(O)c3oc4ccccc4c4ccc(c1=O)c2c34 | 1 mm | inactive | inactive |  |  | inactive |  |  | 5 mm | 2 mm |  |
| COC1=Cc2ccc(OC)c3ccc(-c4ccccc4)c(c23)C1=O | 1 mm | inactive | inactive |  |  | inactive |  |  | 3 mm | 1 mm |  |
